Laboratory results published in patent publication US20250032506A1, “GLUCOCORTICOID RECEPTOR BLOCKADE WITH MIFEPRISTONE TO SENSITIZE PANCREATIC CANCER TO IMMUNOTHERAPY” (BOARD OF REGENTS, THE UNIVERSITY OF TEXAS SYSTEM, priority 2021, published 2025).

Key:
[1] = tested on: tumors formed by KPC cell lines (HY24409, HY24160); test: Tumor growth in immunodeficient NSG mice implanted with KPC cell lines; assay type: in vivo, mouse; conditions: mifepristone oral gavage 60 mg kg-1, twice every 3 days
Description: (§1) Orthotopic pancreatic tumor size was determined by MRI. Subcutaneous tumor size was measured with a caliper. […] Animal body weight was measured throughout the study.

[2] = tested on: orthotopic HY24160 tumors
Description: as §1

HY24409 cells [3] = test: qPCR and flow cytometry of PD-L1, MHC-I and B2M in HY24409 cells; assay type: cell-based, mouse; conditions: MIFE 20 μM, 48 h
Description: (See Bardeesy, N., et al. supra). The human PDAC cell lines SU86.86 ([…]), SW1990 ([…]), BXPC-3 ([…]), Miapaca-2 ([…]), Capan-1 ([…]), ASPC-1 ([…]), Hs766T ([…]), Colo357/FG ([…]), L3.6PL ([…]), Panc28 ([…]), Capan-2 ([…]), CF-Pac-1 ([…]), Panc3 (sex unknown), Panc1 ([…]), Panc48 (sex unknown), and HPAC ([…]) were from Mien-Chie Hung's lab stock. […] The BXPC-3, Miapaca-2, Capan-1, ASPC-1, Colo357/FG, L3.6PL, Panc28, Capan-2, CF-Pac-1, Panc3, Panc1, Panc48, and HPAC cell lines were cultured in DMEM/F-12 (Corning, 10-092-CV) supplemented with 10% FBS and 1% penicillin/streptomycin. Cells were grown in a humidified incubator with 5% CO2 at 37° C., and low-passage stocks were maintained in a centralized lab cell bank. Short tandem repeat profiling and mycoplasma tests were done by the Cytogenetics and Cell Authentication Core at MD Anderson Cancer Center.

HY19636 cells = test: qPCR and flow cytometry of PD-L1, MHC-I and B2M in HY19636 cells; assay type: cell-based, mouse; conditions: MIFE 20 μM, 48 h
Text: The male PDAC cell lines HY24409 and HY24160 and the female PDAC cell line HY19636 were established from KPC mice (p48-Cre; Kras^LSL-G12D/+; Trp53^loxP/+) that were backcrossed to a C57BL/6 background (purity: ˜ 98%). (See Bardeesy, N., et al. supra). The human PDAC cell lines SU86.86 ([…]), SW1990 ([…]), BXPC-3 ([…]), Miapaca-2 ([…]), Capan-1 ([…]), ASPC-1 ([…]), Hs766T ([…]), Colo357/FG ([…]), L3.6PL ([…]), Panc28 ([…]), Capan-2 ([…]), CF-Pac-1 ([…]), Panc3 (sex unknown), Panc1 ([…]), Panc48 (sex unknown), and HPAC ([…]) were from Mien-Chie Hung's lab stock. The HY24409, HY24160, HY19636, SU86.86, SW1990, and Hs766T cell lines were cultured in RPMI 1640 (Corning, 10-041-CV) supplemented with 10% fetal bovine serum (FBS) (Gibco, 10438-034) and 1% penicillin/streptomycin (Sigma, P4333). The BXPC-3, Miapaca-2, Capan-1, ASPC-1, Colo357/FG, L3.6PL, Panc28, Capan-2, CF-Pac-1, Panc3, Panc1, Panc48, and HPAC cell lines were cultured in DMEM/F-12 (Corning, 10-092-CV) supplemented with 10% FBS and 1% penicillin/streptomycin. Cells were grown in a humidified incubator with 5% CO2 at 37° C., and low-passage stocks were maintained in a centralized lab cell bank. Short tandem repeat profiling and mycoplasma tests were done by the Cytogenetics and Cell Authentication Core at MD Anderson Cancer Center.
(§2) Immunity 54, 1561-1577 e1567 (2021).

[4] = tested on: orthotopic HY24409 tumors; test: Flow cytometric analysis and multiplex immunofluorescent staining of tumors or spleens from mice treated with mifepristone and dual ICB; assay type: in vivo, mouse
Description: Cancer Discov 10, 1374-1387 (2020). […] CyTOF data were analyzed by FlowJo and Cytobank.
as §2

[5] = tested on: orthotopic HY24409 tumors; test: Orthotopic HY24409 pancreatic tumors in C57BL/6 mice; assay type: in vivo, mouse
Description: as §1

HY24409 cells [6] = test: Chemokine array of conditioned medium; assay type: cell-based, mouse; conditions: mifepristone 20 μM, 48 hours
Description: Chemokine array was performed with conditioned medium from HY24409 cells treated with vehicle or mifepristone (20 μM, 48 hours) using the Proteome Profiler Mouse Chemokine Array Kit (R&D system, ARY020) following the manufacturer's instructions.

[7] = flow cytometry and qPCR, HY24160 tumors
[8] = relative to the control group, either with or without co-treatment with dual ICB

CC#C[C@]1(O)CC[C@H]2[C@@H]3CCC4=CC(=O)CCC4=C3[C@@H](c3ccc(N(C)C)cc3)C[C@@]21C [mifepristone]
growth of tumors formed by KPC cell lines [1]: neither mifepristone treatment (FIGS. 11A-11J) nor shRNA-mediated GR knockdown (FIGS. 11K-11N) affected the growth of tumors | tumor growth ([2]; C57BL/6 mice, orthotopic HY24160, CTL-dependent manner): inhibited tumor growth | MHC-I expression levels [2, 7]: upregulated | expression levels of PD-L1 and known GR-activated genes [2, 7]: downregulated | body weight ([2]; mouse, in vivo): without affecting body weight | infiltration and activity of cytotoxic T cells ([2]; mouse, in vivo): promoted | surface PD-L1 levels (HY24409 cells [3]; flow cytometry): decreased | surface protein levels of MHC-I (H-2K^b) and B2M (HY24409 cells [3]; flow cytometry): increased | MHC-I and B2M mRNA levels (HY24409 cells [3]; qPCR): increase | PD-L1 mRNA levels (HY24409 cells [3]; qPCR): decrease | MHC-I and B2M at mRNA and surface protein levels (HY19636 cells): upregulated | PD-L1 at mRNA and surface protein levels (HY19636 cells): downregulated | tumor infiltration by CD8+ T cells and granzyme B+ CTLs ([4]; flow cytometric analysis and multiplex immunofluorescent staining, HY24409 tumors): increase | cell-surface MHC-I (H-2K^b) and B2M in tumor cells [4, 8]: increase | cell-surface PD-L1 in tumor cells [4, 8]: decrease | body weight ([5]; C57BL/6 mice bearing orthotopic HY24409 tumors, mifepristone 60 mg kg-1): without significant loss of body weight | orthotopic pancreatic tumor volume (magnetic resonance imaging) and weight ([5]; C57BL/6 mice, HY24409, mifepristone oral gavage 60 mg kg-1, twice every 3 days): substantial reductions | tumor growth inhibition upon antibody-mediated depletion of CD8+ T cells ([5]; C57BL/6 mice, orthotopic HY24409, mifepristone plus anti-CD8 antibody): abolished | reduction in tumor weight at the endpoint ([5]; C57BL/6 mice, orthotopic HY24409, vs vehicle or control shRNA): 67.7% | chemokines secreted by HY24409 cells (HY24409 cells [6]): no chemokines that showed a change after mifepristone treatment were found
